The values below come from PMC11816618, “Pharmacokinetic profile and in vivo anticancer efficacy of anagrelide administered subcutaneously in rodents” (Drug Delivery, 2025).

Series [1] can be described thus: Long-term plasma exposure after a single SC ANA dose (56-day follow-up), plasma LC-MS/MS. The series is classed as in vivo, Sprague-Dawley rats. The note with it: male SD rats, n = 5, 56-day follow-up. On the procedure: To monitor the sustained release of SC ANA in the long term, 10 male SD rats were treated with a single dose of either 7.0 mg/kg (n = 5) or 35.0 mg/kg (n = 5). The rats were purchased from SPF Biotechnology Co. Ltd. (Beijing, China). Animals were acclimated to the test facility for at least three days, during which their general health was checked by veterinary staff or other authorized personnel. Animals were kept in polycarbonate cages containing absorbent corncob bedding, with a maintained temperature range of +20-25 °C and a 12-h light/dark cycle. Animals had access to food and drinking water ad libitum during acclimation and the experiment. At the end of the study, the rats were euthanized by exposure to an increasing concentration of CO2. […] The SC formulation was prepared by dissolving micronized ANA (5 μm particle size) in an oily triglyceride ester of saturated caprylic and capric fatty acids and glycerol (Miglyol® 810 N, IOI Oleo GmbH, Hamburg, Germany). […] To evaluate plasma concentration-time profiles, blood samples were collected from the jugular vein in EDTA tubes and stored at -70 °C until further analysis. […] In the second PK analysis in rats with a longer follow-up time, blood samples were collected at 0, 30 min, 1 […], and 56 d after dosage. SD rat plasma was analyzed for ANA, 3-OH-ANA, and RL603 concentrations by Pharmaron (Beijing, China). ANA, 3-hydroxy-anagrelide (CAS No. 733043-41-9, Cat. No. sc-206647, Santa Cruz Biotechnology, Inc., Dallas, TX), and RL603 (CAS No. 327602-34-6, Cat. No. sc-391661, Santa Cruz Biotechnology, Inc., Dallas, TX) were used as reference items in calibration standards and quality control (QC) samples. The HPLC and the MS/MS (LCMS-8060) instruments were both from SHIMADZU (Kyoto, Japan), and the column used was a Raptor Biphenyl column (2.7 μm, 50 × 2.1 mm, Restek, Bellefonte, PA). The desired serial concentrations of working solutions were achieved by diluting analyte stock solution with 50% acetonitrile in water. […] QC samples at 0.5, 1, 2, 50, and 800 ng/mL were prepared independently of those used for the calibration curves. These QC samples were prepared on the day of analysis in the same way as calibration standards. Carbamazepine (CAS No. 298-46-4, Sigma-Aldrich, St. Louis, MO) was used as an internal standard for all analytes. Altogether, 55 μL of standards, 55 μL of QC samples, and 55 μL of test samples (comprising 50 μL of plasma and 5 μL of blank solution) were added to 200 μL of acetonitrile containing an internal standard mixture to precipitate protein. The samples were then vortexed for 30 seconds. After centrifugation at 4000 × g (+4 °C) for 5 min, the supernatant was diluted threefold with water, and 2 μL of the diluted supernatant was injected into the LC/MS/MS system for quantitative analysis. The transitions were 256.00-198.90 m/z for anagrelide hydrochloride, 272.00-198.95 m/z for 3-hydroxy anagrelide, 216.00-198.95 m/z for RL603, and 237.20-194.10 m/z for carbamazepine. […] Plasma drug concentration-time profiles were drawn by the average plasma concentrations at specific time points using Microsoft Excel (Redmond, WA). […] Certara, Princeton, NJ) software. Averages of each variable were used when PK values were compared.

A short description of series [2]: PK comparison between three administration routes (IV, PO, SC), plasma LC-MS/MS. It is filed as in vivo, Sprague-Dawley rats. The note with it: for Tmax: male, plasma, read-out: Tmax. Here is the method: The rats were purchased from SPF Biotechnology Co. Ltd. (Beijing, China). Animals were acclimated to the test facility for at least three days, during which their general health was checked by veterinary staff or other authorized personnel. Animals were kept in polycarbonate cages containing absorbent corncob bedding, with a maintained temperature range of +20-25 °C and a 12-h light/dark cycle. Animals had access to food and drinking water ad libitum during acclimation and the experiment. At the end of the study, the rats were euthanized by exposure to an increasing concentration of CO2. […] The SC formulation was prepared by dissolving micronized ANA (5 μm particle size) in an oily triglyceride ester of saturated caprylic and capric fatty acids and glycerol (Miglyol® 810 N, IOI Oleo GmbH, Hamburg, Germany). […] To evaluate plasma concentration-time profiles, blood samples were collected from the jugular vein in EDTA tubes and stored at -70 °C until further analysis. […] In the second PK analysis in rats with a longer follow-up time, blood samples were collected at 0, 30 min, 1 […], and 56 d after dosage. SD rat plasma was analyzed for ANA, 3-OH-ANA, and RL603 concentrations by Pharmaron (Beijing, China). ANA, 3-hydroxy-anagrelide (CAS No. 733043-41-9, Cat. No. sc-206647, Santa Cruz Biotechnology, Inc., Dallas, TX), and RL603 (CAS No. 327602-34-6, Cat. No. sc-391661, Santa Cruz Biotechnology, Inc., Dallas, TX) were used as reference items in calibration standards and quality control (QC) samples. The HPLC and the MS/MS (LCMS-8060) instruments were both from SHIMADZU (Kyoto, Japan), and the column used was a Raptor Biphenyl column (2.7 μm, 50 × 2.1 mm, Restek, Bellefonte, PA). The desired serial concentrations of working solutions were achieved by diluting analyte stock solution with 50% acetonitrile in water. […] These QC samples were prepared on the day of analysis in the same way as calibration standards. Carbamazepine (CAS No. 298-46-4, Sigma-Aldrich, St. Louis, MO) was used as an internal standard for all analytes. Altogether, 55 μL of standards, 55 μL of QC samples, and 55 μL of test samples (comprising 50 μL of plasma and 5 μL of blank solution) were added to 200 μL of acetonitrile containing an internal standard mixture to precipitate protein. The samples were then vortexed for 30 seconds. After centrifugation at 4000 × g (+4 °C) for 5 min, the supernatant was diluted threefold with water, and 2 μL of the diluted supernatant was injected into the LC/MS/MS system for quantitative analysis. The transitions were 256.00-198.90 m/z for anagrelide hydrochloride, 272.00-198.95 m/z for 3-hydroxy anagrelide, 216.00-198.95 m/z for RL603, and 237.20-194.10 m/z for carbamazepine. […] Plasma drug concentration-time profiles were drawn by the average plasma concentrations at specific time points using Microsoft Excel (Redmond, WA). […] Certara, Princeton, NJ) software. Averages of each variable were used when PK values were compared.

Where [3] appears, read: analyte in plasma after single SC ANA dose 7 mg/kg.
Setting [4] is: analyte in plasma after single SC ANA dose 35 mg/kg.
The mark [5] stands for this setting: Sprague-Dawley, rat, analyte in plasma after single SC ANA dose 7 mg/kg.
Setting [6] is: Sprague-Dawley, rat, analyte in plasma after single SC ANA dose 35 mg/kg.
The mark [7] stands for this setting: Sprague-Dawley, rat, analyte in plasma after single ANA dose 0.5 mg/kg IV, male SD rats, n = 3, mean ± SD.
Setting [8] is: Sprague-Dawley, rat, analyte in plasma after single ANA dose 2.5 mg/kg PO, male SD rats, n = 3, mean ± SD.

Where only a bound is given, the exact number is not on record here.

In series [1] (setting [3]), `O=C1NC2=Nc3ccc(Cl)c(Cl)c3CN2C1O` (centres unmarked) [3-Hydroxy-anagrelide, 3′-hydroxy-anagrelide] showed an AUCinf of 699.77 ± 705.45 ng·h/mL, an AUClast of 86.57 ± 60.96 ng·h/mL, a Cmax of 0.46 ± 0.09 ng/mL and a T1/2 of 1099 ± 945.8 h. Besides, the Tmax in series [1] (setting [3]) came out at 19.00 ± 35.34 h. Besides, in series [1] (setting [4]), the AUCinf was 2492.52 ± 2459.44 ng·h/mL, the AUClast was 563.51 ± 106.90 ng·h/mL, the Cmax turned out to be 1.75 ± 0.61 ng/mL and the T1/2 worked out at 377.8 ± 200 h. In addition, the Tmax in series [1] (setting [4]) is 46.00 ± 95.07 h.
As to `NC1=Nc2ccc(Cl)c(Cl)c2CN1` [RL603, 2‐amino‐5,6‐dichloro‐3,4‐dihydroquinazolin], the AUC(0-inf) in series [1] (setting [5]) stood at 1530 ± 1540 ng·h/mL; in series [1] (setting [6]), 2280 ± 1210 ng·h/mL; in series [2] (setting [8]) it was 34.8 ± 9.94 ng·h/mL. Moreover, the AUC(0-t) turned out to be 351 ± 85.7 ng·h/mL in series [1] (setting [5]), 925 ± 141 ng·h/mL in series [1] (setting [6]) and 24.9 ± 4.29 ng·h/mL in series [2] (setting [8]). The half-life in series [1] (setting [5]) was 895 h; in series [1] (setting [6]) it was 285 h; in series [2] (setting [7]), 0.98 ± 0.24 h; in series [2] (setting [8]), 13.1 ± 5.29 h. The Cmax in series [1] (Sprague-Dawley, rat, analyte in plasma after single SC ANA dose 7 mg/kg, read-out: Cmax) was found to be 1.08 ± 0.26 ng/mL; in series [1] (Sprague-Dawley, rat, analyte in plasma after single SC ANA dose 35 mg/kg, read-out: Cmax), 2.4 ± 1.28 ng/mL; in series [2] (setting [7]), 12.3 ± 2.85 ng/mL; in series [2] (setting [8]), 3.48 ± 1.01 ng/mL. Also, the Tmax in series [1] (Sprague-Dawley, rat, analyte in plasma after single SC ANA dose 7 mg/kg, read-out: Tmax) was found to be 19.6 ± 9.84 h; in series [1] (Sprague-Dawley, rat, analyte in plasma after single SC ANA dose 35 mg/kg, read-out: Tmax) it was 92.8 ± 113 h; in series [2] (Sprague-Dawley, rat, iv, 0.5 mg/kg, analyte in plasma after single ANA dose 0.5 mg/kg IV, male SD rats, n = 3, mean ± SD), 1 ± 0.87 h; in series [2] (Sprague-Dawley, rat, po, 2.5 mg/kg, analyte in plasma after single ANA dose 2.5 mg/kg PO, male SD rats, n = 3, mean ± SD), 1.67 ± 0.58 h. Also, the “plasma concentration (not detected above the quantifiable limit)” value in series [2] (after SC ANA 1.0 mg/kg, SD rats) is below 0.2 ng/mL.

By Cmax is commonly meant the peak of the concentration-time curve. In general, Tmax refers to the time at which the peak concentration occurs. As a reminder, the AUC(0-inf) is total exposure, with the tail of the curve extrapolated. Lower therefore signals low exposure. One may read the AUC(0-t) as exposure summed from dosing to a finite time, without extrapolation to infinity. The half-life is the time in which the quantity being followed falls by half.
